# Data from patent publication US6355467B1, “Saccharification enzymes from hyperthermophilic bacteria and processes for their production” (Johns Hopkins University, priority 1989, dated 2002).
# What was measured:
# [1] = tested on: P. furiosus α-glucosidase; test: Substrate specificity (kinetic assays) of purified α-glucosidase; assay type: biochemical, Pyrococcus furiosus; conditions: substrate hydrolysed by purified α-glucosidase
# Method: (§1) α-Glucosidase was assayed using p-nitrophenyl-α-D-glucopyranoside (PNP-α-G) as substrate, and β-glucosidase was assayed using p-nitrophenyl-β-D-glucopyranoside (PNP-β-G) as substrate. Assays were conducted as follows; for each assay, 1.0 ml of substrate consisting of 10 mM PNP-α-G or PNP-β-G in 0.1 M sodium phosphate buffer, pH 5.5, was pipetted into a quartz cuvette. The cuvettes were inserted into a heated cell holder and preincubated for 5 to 10 minutes at the assay temperature of 98° C. Following the preincubation, enzyme sample (10 μl) was added to the cuvette and the evolution of p-nitrophenol (PNP) was followed by monitoring A405.
# Substrate specificity. The substrate specificity of the purified α-glucosidase was tested with a variety of natural and synthetic glucosides.
# [2] = tested on: purified P. furiosus α-glucosidase; test: Effects of denaturing agents and inhibitors on purified α-glucosidase; assay type: biochemical, Pyrococcus furiosus; conditions: standard assay at 98° C.
# Method: as §1, with “A405. One unit of glucosidase activity was that amount of enzyme releasing one μmol PNP per minute under the standard conditions, from the appropriate α or β substrate.” for “A405.”
# Resistance to denaturing agents. […] Several denaturing agents were added to p-nitrophenyl-α-D-glucopyranoside, both in the presence and absence of the α-glucosidase, to control for possible degradation of the substrate in the presence of the agents.
# [3] = tested on: P. furiosus; test: Effect of adding substrate to the culture medium on saccharification enzyme production; assay type: cell-based, Pyrococcus furiosus; conditions: substrate added to culture
# Method: Growth of cells. P. furiosus was grown in artificial sea water supplemented with 10 g/l elemental sulfur and carbohydrate substrate, typically 3 g/l of soluble starch, unless otherwise specified, as described in Example 1. For the present studies, typically one liter bottles were inoculated with 20 ml of a late log phase culture and incubated for 12 hours at 98° C. in a silicon oil bath. Sulfur was removed by filtration and the cell pellet was recovered by centrifugation at about 12,000×g for 30 minutes. Intracellular enzyme preparation. […] The sonicated cells were centrifuged at about 18,000×g for 30 minutes to remove remaining sulfur and cell debris. […] Extracellular enzyme preparation. For extracellular enzyme activities, supernatants from the original centrifugation (i.e., the culture media) were concentrated from 1 liter to about 5 ml using, in succession, a Millipore […] ultrafiltration unit with a 10,000 molecular-weight-cutoff membrane, and a Novacell stirred cell with a 10,000 molecular-weight-cutoff membrane. […] EPPS was used instead of phosphate to prevent precipitation of salts from the media. […] The amount of reducing sugar released was determined using the dinitrosalicylic acid method (Barnfeld, P., 1955, Methods in Enzymology 1:149-50). One unit of enzyme activity was defined as the amount of enzyme that released one nmol of reducing sugar (as a glucose standard) per minute under the assay conditions used. α-Glucosidase was assayed using p-nitrophenyl-α-D-glucopyranoside (PNP-α-G) as substrate, and β-glucosidase was assayed using p-nitrophenyl-β-D-glucopyranoside (PNP-β-G) as substrate. Assays were conducted as follows; for each assay, 1.0 ml of substrate consisting of 10 mM PNP-α-G or PNP-β-G in 0.1 M sodium phosphate buffer, pH 5.5, was pipetted into a quartz cuvette. […] Following the preincubation, enzyme sample (10 μl) was added to the cuvette and the evolution of p-nitrophenol (PNP) was followed by monitoring A405. One unit of glucosidase activity was that amount of enzyme releasing one μmol PNP per minute under the standard conditions, from the appropriate α or β substrate.
compound,measurement,setting,value
OC[C@H]1O[C@H](OC[C@H]2OC(O)[C@H](O)[C@@H](O)[C@@H]2O)[C@H](O)[C@@H](O)[C@@H]1O (stereo partly drawn) [Isomaltose],Km,[1],8.2 mM
same,Vm,[1],951 U/mg
O[C@H](CS)[C@H](O)CS (racemic) [Dithiothreitol],Activity Remaining,[2]; agent at 100 mM,83%
"O=C(O)CN(CCN(CC(=O)O)CC(=O)O)CC(=O)O [EDTA, Ethylenediaminetetraacetic acid]",Activity Remaining,[2]; agent at 20 mM,50%
"O=C(O)CN(CCOCCOCCN(CC(=O)O)CC(=O)O)CC(=O)O [EGTA, [Ethylenebis(oxyethylenenitrilo)]tetraacetic acid]",Activity Remaining,[2]; agent at 20 μM,85%
OC[C@H]1O[C@H](O[C@H]2[C@H](O)[C@@H](O)C(O)O[C@@H]2CO)[C@H](O)[C@@H](O)[C@@H]1O (mixture of isomers) [Maltose],Km,[1],5.2 mM
same,Vm,[1],1760 U/mg
same,best yield of pullulanase per liter of culture,[3]; intracellular,8020 units
OC[C@H]1O[C@@](CO)(O[C@H]2O[C@H](CO)[C@@H](O)[C@H](O)[C@H]2O)[C@@H](O)[C@@H]1O [Sucrose],activity relative to p-Nitrophenyl-α-D-glucopyranoside (symbols),[1],nd (No activity detected (<3% of p-Nitrophenyl-α-D-glucopyranoside))
Cl.N=C(N)N [Guanidinium hydrochloride],Activity Remaining,[2]; agent at 1.0 M,<1%
glycogen,best yield of amylase per liter of culture,[3]; enzyme in medium,"60,100 units"
same,best yield of α-glucosidase per liter of culture,[3]; intracellular,9584
O=[N+]([O-])c1ccc(O[C@@H]2O[C@H](CO)[C@H](O)[C@H](O)[C@H]2O)cc1 [p-Nitrophenyl-α-D-glucopyranoside],Km,[1],0.26 mM
same,Vm,[1],287 U/mg
O=[N+]([O-])c1ccc(O[C@@H]2O[C@H](CO)[C@@H](O)[C@H](O)[C@H]2O)cc1 [p-Nitrophenyl-β-D-glucopyranoside],activity relative to p-Nitrophenyl-α-D-glucopyranoside (symbols),[1],"t (Only a trace of activity could be detected (i.e., ˜3% of the level found with p-Nitrophenyl-α-D-glucopyranoside).)"
NC(N)=O [Urea],Activity Remaining,[2]; agent at 1.0 M,84%
CO[C@H]1O[C@H](CO)[C@@H](O)[C@H](O)[C@H]1O [Methyl-α-D-glucopyranoside],Km,[1],0.77 mM
same,Vm,[1],186 U/mg
CCCCCCCCCCCCOS(=O)(=O)[O-].[Na+] [Sodium dodecyl sulphate],Activity Remaining,"[2]; agent at 1% (w/v), 30 minutes",22%
Starch,activity relative to p-Nitrophenyl-α-D-glucopyranoside (symbols),[1],nd (No activity detected (<3% of p-Nitrophenyl-α-D-glucopyranoside))
same,best yield of β-glucosidase per liter of culture,[3]; intracellular,220 units
